Laboratory results reported in publication PMC3279297 (Bioorganic & medicinal chemistry, 2011).

Legend:
Format in all cases: biochemical
DENV2 NS2B-NS3 protease = DENV2 NS2B-NS3 protease (Dengue virus type 2, UniProt P14340); test: In vitro DENV2 NS2B-NS3pro inhibition assay; details: compound 25 μM, protease 25 nM, absence of detergent (Figure 2)
WNV NS2B-NS3pro = WNV NS2B-NS3pro (West Nile virus, UniProt Q9Q6P4); test: In vitro WNV NS2B-NS3pro inhibition assay; details: compound 25 μM, protease 28 nM, 0.1% CHAPS (Figure 3)
DENV2 NS2B-NS3pro = DENV2 NS2B-NS3pro (Dengue virus type 2, UniProt P14340); test: Steady-state kinetics of 7n against DENV2 NS2B-NS3pro; details: 0.025 μM protease
Chain of DENV2 NS2B-NS3pro (P14340 1476-1653): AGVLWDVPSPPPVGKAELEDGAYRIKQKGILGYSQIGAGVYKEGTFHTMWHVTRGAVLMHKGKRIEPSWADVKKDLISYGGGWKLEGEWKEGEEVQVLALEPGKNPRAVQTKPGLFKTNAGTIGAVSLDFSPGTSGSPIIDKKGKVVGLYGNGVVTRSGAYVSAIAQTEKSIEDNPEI
Chain of DENV2 NS2B-NS3pro (P14340 1398-1437): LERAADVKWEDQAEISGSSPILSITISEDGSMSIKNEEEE

Chain of DENV2 NS2B-NS3 protease (P14340 1476-1653): as the sequence (P14340 1476-1653) above
Chain of DENV2 NS2B-NS3 protease (P14340 1398-1437): as the sequence (P14340 1398-1437) above
Chain of WNV NS2B-NS3pro (Q9Q6P4 1506-1683): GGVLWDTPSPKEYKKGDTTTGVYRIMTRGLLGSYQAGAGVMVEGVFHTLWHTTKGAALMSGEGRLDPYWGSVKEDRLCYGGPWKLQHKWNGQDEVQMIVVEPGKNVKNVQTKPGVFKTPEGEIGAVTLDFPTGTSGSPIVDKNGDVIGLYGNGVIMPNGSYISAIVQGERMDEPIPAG
Chain of WNV NS2B-NS3pro (Q9Q6P4 1428-1467): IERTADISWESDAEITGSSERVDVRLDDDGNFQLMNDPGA

Compound	inhibitory activity toward DENV NS2B-NS3pro (in words) (DENV2 NS2B-NS3 protease)	inhibitory activity toward WNV NS2B-NS3pro (in words) (WNV NS2B-NS3pro)	Vmax (DENV2 NS2B-NS3pro; inhibitor [7n] 1 μM) [µM/min]	Vmax (DENV2 NS2B-NS3pro; inhibitor [7n] 2 μM) [µM/min]	Vmax (DENV2 NS2B-NS3pro; inhibitor [7n] 5 μM) [µM/min]
O=C(Cn1sc2ccccc2c1=O)NCc1cn(CC(=O)Nc2ccc(Oc3ccccc3)cc2)nn1 [Compound 4l, N-((1-(2-Oxo-2-(4-phenoxyphenylamino)ethyl)-1H-1,2,3-triazol-4-yl)methyl)-2-(3-oxobenzo[d]isothiazol-2(3H)-yl)acetamide]	noteworthy inhibitory activity	weak inhibitory activity			
O=C(Cn1sc2ccccc2c1=O)Nc1cccc(OCc2cn(CC(=O)Nc3ccccc3Oc3ccccc3)nn2)c1 [Compound 7n, N-(3-((1-(2-Oxo-2-(2-phenoxyphenylamino)ethyl)-1H-1,2,3-triazol-4-yl)methoxy)phenyl)-2-(3-oxobenzo[d]isothiazol-2(3H)-yl)acetamide]			0.1006 ± 0.0029	0.0978 ± 0.0020	0.0994 ± 0.0010
Methyl 4-((4-((3-(2-(3-oxobenzo[d]isothiazol-2(3H)-yl)acetamido)phenoxy)methyl)-1H-1,2,3-triazol-1-yl)methyl)benzoate [Compound 7e]	noteworthy inhibitory activity				
